# According to US10618904B2 (priority 2016, dated 2020):
# Several values for one entry are separate records, joined by “and”; a condition that tells them apart may be missing. Equal values may be shown once. Read-outs that look alike come from different tables or passages of the source.
# Assays:
# [1] = Activity of degradation impurity relative to compound of formula (I); conditions: fraction of parent activity
# Method: [drawing 4] the impurity having an activity which is 1/300 of that of the compound of formula (I). […] Whether the stability is good or not is also a key factor in selecting the crystal form of the compound. Accordingly, it is preferred in the present invention that the hydrobromide of the compound of the formula (I) is present in the form of α crystal form. […] In the differential scanning calorimetry of the α crystal form, there is a melting endothermic peak at 170° C.±2° C. Therefore, in the present invention, the structure of the α crystal form is defined by the above-mentioned powder diffraction characteristic peaks and DSC melting peak, and on the basis of this definition, the α crystal form can be clearly distinguished from other three crystal forms.
# [2] = Solubility in water of screened salts (Table 2)
# Description: (§1) In order to achieve the above water solubility goal, the inventors have conducted studies from various aspects, e.g., crystal forms of existing salts, preparation excipients, formation of new salt types, etc., hoping to find a feasible means that can improve water solubility while ensuring better druggability.
# [3] = Hygroscopicity of screened salts (Table 2); format: physicochemical
# Description: as §1
# [4] = prior art information; cited from earlier work
# [5] = cited from earlier work
# [6] = statement of CN103221414B / CN201280003321.6, cited from earlier work
# [7] = 40 degrees, RH75% closed, 4 weeks
# [8] = 40 degrees, RH75% closed and 60 degrees open, 34 days
structure (smiles),measurement,setting,value
Cc1cnc2n1-c1ccc(Br)cc1C(c1ccccn1)=N[C@H]2CCC(=O)O,activity relative to that of the compound of formula (I),[1],1/300
COC(=O)CC[C@@H]1N=C(c2ccccn2)c2cc(Br)ccc2-n2c(C)cnc21,solubility,[2]; water,> 100 mg/mL
"O=S(=O)(O)c1cccc2c(S(=O)(=O)O)cccc12 [1,5-naphthalene disulfonate]",Solubility in water,[2],1 mg/mL
same,Hygroscopicity (%),[3],15.9%
COC(=O)CC[C@@H]1N=C(c2ccccn2)c2cc(Br)ccc2-n2c(C)cnc21.O=S(=O)(O)O [(bi)sulfate form 1],Hygroscopicity (%),[3],0.1%
COC(=O)CC[C@@H]1N=C(c2ccccn2)c2cc(Br)ccc2-n2c(C)cnc21.O=S(=O)(O)O [(bi)sulfate form 2],Solubility in water,[2],>100 mg/mL
same,Hygroscopicity (%),[3],24.9%
COC(=O)CC[C@@H]1N=C(c2ccccn2)c2cc(Br)ccc2-n2c(C)cnc21.Cl [Hydrochloride],Solubility in water,[2],>100 mg/mL
same,Hygroscopicity (%),[3],2.8%
COC(=O)CC[C@@H]1N=C(c2ccccn2)c2cc(Br)ccc2-n2c(C)cnc21.O=S(=O)(O)c1ccccc1 [Remimazolam besylate],Solubility in water,[4],8.3 mg/mL
same,degradation,[5]; [7],0.5%
COC(=O)CC[C@@H]1N=C(c2ccccn2)c2cc(Br)ccc2-n2c(C)cnc21 [Remimazolam esylate],Solubility in water,[4],7.8 mg/mL
same,degradation,[5]; [7],0.2%
COC(=O)CC[C@@H]1N=C(c2ccccn2)c2cc(Br)ccc2-n2c(C)cnc21.Cc1ccc(S(=O)(=O)O)cc1 [Remimazolam tosylate],toxicity compared with besylate / benzene sulfonic acid,[6],less toxic than benzene sulfonic acid
same,toxicity compared with besylate / benzene sulfonic acid,[6]; listed as tosylate of the compound of the formula (I),less toxic than besylate
same,Solubility in water,[4],~10 mg/mL and ~11 mg/mL
"COC(=O)CC[C@@H]1N=C(c2ccccn2)c2cc(Br)ccc2-n2c(C)cnc21 [Remimazolam, methyl 3-[(4s)-8-bromo-1-methyl-6-(2-pyridyl)-4H-imidazol[1,2-a][1,4]benzodiazepine-4-yl] propionate]",Solubility in water (mg/mL),[2],almost
same,Hygroscopicity (%),[3]; listed as Free base,1.7%
same,Solubility in water,[4],Almost insoluble in water
same,appearance change,[5]; [8],"yellowing at 40 degrees, RH75% closed and 60 degrees"
same,degradation,[5]; [8],1.5-8%
same,stability of sample,"[5]; 40° C./75% relative humidity (open), reported in CN101501019","deliquescent, discolored, and significantly reduced in content"
COC(=O)CC[C@@H]1N=C(c2ccccn2)c2cc(Br)ccc2-n2c(C)cnc21 [crystal form 1],Solubility in water,[2],>100 mg/mL
same,Hygroscopicity (%),[3]; listed as Hydrobromide crystal form 1,4.6%
COC(=O)CC[C@@H]1N=C(c2ccccn2)c2cc(Br)ccc2-n2c(C)cnc21 [crystal form 2],Solubility in water,[2],>100 mg/mL
COC(=O)CC[C@@H]1N=C(c2ccccn2)c2cc(Br)ccc2-n2c(C)cnc21 [crystal form 3],Solubility in water,[2],>100 mg/mL
same,Hygroscopicity (%),[3]; listed as Hydrobromide crystal form 3,5%
COC(=O)CC[C@@H]1N=C(c2ccccn2)c2cc(Br)ccc2-n2c(C)cnc21 [α crystal form],Solubility in water,[2],>100 mg/mL
same,Hygroscopicity (%),[3]; listed as Hydrobromide crystal form α,2.5%
